Patent US11179450B2, “Long chain antigen containing interepitope sequence that promotes antigen presentation to T cells” (MIE UNIVERSITY, priority 2013, dated 2021)

System: mouse fibrosarcoma cell line CMS5a
Experiment: Mouse tumor growth test
Type: in vivo, BALB/c mice
Conditions: FIG. 2; single dose of vaccine with CpG oligo DNA before subcutaneous CMS5a implantation (prophylactic condition); Student's t test
Description: Long chain peptide antigens MEN, all containing three types of mouse CD8+ T cell epitope sequences (MA p265 (Sequence No. 27), NY p81 (Sequence No. 29), and mERK2 9m (Sequence No. 28)), were synthesized. The interepitope sequences between the respective epitopes were respectively six consecutive tyrosines (Y6) (Sequence No. 1), six consecutive glycines (G6) (Sequence No. 2), or six consecutive prolines (P6) (Sequence No. 3). Each long chain peptide antigen was complexed with CHP and administered in a single dose as a vaccine to a mouse. As a control, a short chain peptide vaccine, constituted of just the mERK2 9m peptide, was mixed with Freund's incomplete adjuvant and administered. In the process of administration, CpG oligo DNA was coadministered as an adjuvant. On the day after administration, a mouse fibrosarcoma cell line CMS5a, expressing mERK2 as a tumor antigen and presenting the CD8+ T cell epitope mERK2 9m derived from the same antigen, was implanted subcutaneously and its growth was recorded over time.
A subcloned CMS5a cell line, obtained from a CMS5 cell line isolated from fibrosarcoma induced by administering 3-methylcholanthrene to a BALB/c mouse, expresses mutant ERK2 (mERK2) as a tumor antigen and presents a CD8^+ T cell epitope derived from the mERK2. The CMS5a cell line cultured in a T75 flask (Nunc) was detached using PBS containing 0.5% trypsin and collected in RPMI1640 medium containing 10% FBS. After centrifuging (400×g, 5 minutes, 4° C.), the supernatant was removed, and the cells were rinsed twice with RPMI1640 medium, thereafter suspended in RPMI1640 medium at a concentration of 1×10^6 cells/100 μL, and implanted subcutaneously in BALB/c mice at a dose of 100 μL/individual. The CHP/long chain peptide complexes and the adjuvant were administered 7 days before tumor implantation (prophylactic condition). After tumor implantation, the length and breadth of the tumor were measured and the product thereof was recorded as tumor size. The data in the tumor growth test were compared by Student's t test using Microsoft® Excel® (Microsoft Corporation).

Sequence: SNPARYEFLYYYYYYQYIHSANVLYYYYYYRGPESRLL (Long chain peptide antigen, containing three types of mouse CD8+ T cell epitope sequences (MA p265, NY p81, and mERK2 9m)) [MEN(Y6)]
- growth of the tumor: suppressed significantly (p<0.05)
